Species on record: Rattus norvegicus
Experiment: Open TG-GATES - Regimen: Daily Repeat
Format: toxicity, organism-based, Sprague-Dawley
Set-up: regimen Daily Repeat, gender Male, age 6 weeks
Conditions: in vivo, po, route gavage; for Bas / Eos / Fbg / Hb / Ht / Lym / MCH / MCHC / MCV / Mono / Neu / PT / Plat / RBC / Ret / WBC / APTT: tissue Blood; for KIDNEY_L / KIDNEY_R / KIDNEY_TOTAL: tissue Kidney; for LIVER: tissue Liver; for ALP / AST / BUN / CRE / Ca / Cl / DBIL / GLC / IP / LDH / Na / PL / RALB / TBIL / TC / TG / TP / gamma-GTP: tissue Plasma
[1] = 30 mg/kg, 72 h, dose level Middle, time 3 day
[2] = 30 mg/kg, […], dose level Middle, time 7 day
[3] = 30 mg/kg, […], dose level Middle, time 14 day
[4] = 30 mg/kg, […], dose level Middle, time 28 day
[5] = 100 mg/kg, 72 h, dose level High, time 3 day
[6] = 100 mg/kg, […], dose level High, time 7 day
[7] = 100 mg/kg, […], dose level High, time 14 day
[8] = 100 mg/kg, […], dose level High, time 28 day

CC(=O)N1CCN(c2ccc(OCC3COC(Cn4ccnc4)(c4ccc(Cl)cc4Cl)O3)cc2)CC1 (configuration not stated) [KETOCONAZOLE]
Bas [1]: 0%
Eos [1]: 1%
Fbg [1]: 303.8 mg/dL
Hb [1]: 13.4 g/dL
Ht [1]: 39.7%
Lym [1]: 77.4%
MCH [1]: 21.4 pg
MCHC [1]: 33.8%
MCV [1]: 63.3 fL
Mono [1]: 2.4%
Neu [1]: 18.2%
PT [1]: 16.3 s
Plat [1]: 117.1 x10_4/uL
RBC [1]: 627.6 x10_4/ul
Ret [1]: 5.6%
WBC [1]: 101.1 x10_2/uL
KIDNEY_L [1]: 1 g
KIDNEY_R [1]: 1.1 g
KIDNEY_TOTAL [1]: 2.1 g
LIVER [1]: 10.5 g
ALP [1]: 1639 IU/L
AST [1]: 67.4 IU/L
BUN [1]: 17.8 mg/dL
CRE [1]: 0.1 mg/dL
Ca [1]: 10.8 mg/dL
Cl [1]: 106.4 meq/L
DBIL [1]: 0 mg/dL
GLC [1]: 181.8 mg/dL
IP [1]: 6.7 mg/dL
LDH [1]: 236.6 IU/L
Na [1]: 139.8 meq/L
PL [1]: 141.8 mg/dL
RALB [1]: 3.1 g/dL
TBIL [1]: 0.01 mg/dL
TC [1]: 71 mg/dL
TG [1]: 88.6 mg/dL
TP [1]: 5.7 g/dL
gamma-GTP [1]: 1.2 IU/L
TERMINAL_BW [2]: 265.9 g
TERMINAL_BW [3]: 312.9 g
TERMINAL_BW [4]: 360.4 g
APTT [2]: 21.8 s
Bas [2]: 0%
Eos [2]: 1%
Fbg [2]: 321.6 mg/dL
Hb [2]: 13.5 g/dL
Ht [2]: 39.7%
Lym [2]: 75.8%
MCH [2]: 21.2 pg
MCHC [2]: 34%
MCV [2]: 62.4 fL
Mono [2]: 2.4%
PT [2]: 16 s
Plat [2]: 121.4 x10_4/uL
RBC [2]: 636.6 x10_4/ul
Ret [2]: 5.4%
WBC [2]: 103.7 x10_2/uL
APTT [3]: 21.1 s
Bas [3]: 0%
Eos [3]: 0.8%
Fbg [3]: 291.8 mg/dL
Hb [3]: 13.4 g/dL
Ht [3]: 39.6%
Lym [3]: 76%
MCH [3]: 20.5 pg
MCHC [3]: 33.8%
MCV [3]: 60.7 fL
Mono [3]: 2.4%
Neu [3]: 19.2%
PT [3]: 16.2 s
Plat [3]: 126.1 x10_4/uL
RBC [3]: 652.8 x10_4/ul
Ret [3]: 4.9%
WBC [3]: 115.1 x10_2/uL
APTT [4]: 25 s
Bas [4]: 0%
Eos [4]: 1%
Fbg [4]: 286.6 mg/dL
Hb [4]: 15.2 g/dL
Ht [4]: 43.9%
Lym [4]: 76.8%
MCH [4]: 19.6 pg
MCHC [4]: 34.5%
MCV [4]: 56.9 fL
Mono [4]: 1.6%
PT [4]: 16.9 s
Plat [4]: 105.3 x10_4/uL
RBC [4]: 773.4 x10_4/ul
Ret [4]: 2.6%
WBC [4]: 102.4 x10_2/uL
KIDNEY_L [2]: 1.2 g
KIDNEY_R [2]: 1.2 g
KIDNEY_TOTAL [2]: 2.3 g
KIDNEY_L [3]: 1.3 g
KIDNEY_R [3]: 1.3 g
KIDNEY_TOTAL [3]: 2.6 g
KIDNEY_L [4]: 1.3 g
KIDNEY_R [4]: 1.4 g
KIDNEY_TOTAL [4]: 2.7 g
LIVER [2]: 12.2 g
LIVER [3]: 14.4 g
LIVER [4]: 15.1 g
ALP [2]: 1565.4 IU/L
AST [2]: 70.4 IU/L
BUN [2]: 18.2 mg/dL
CRE [2]: 0.1 mg/dL
Ca [2]: 10.6 mg/dL
Cl [2]: 108.2 meq/L
DBIL [2]: 0 mg/dL
GLC [2]: 176.4 mg/dL
IP [2]: 6.9 mg/dL
LDH [2]: 171.8 IU/L
Na [2]: 142 meq/L
PL [2]: 145 mg/dL
RALB [2]: 3 g/dL
TBIL [2]: 0.004 mg/dL
TC [2]: 70.4 mg/dL
TG [2]: 135.4 mg/dL
TP [2]: 5.7 g/dL
gamma-GTP [2]: 1.6 IU/L
ALP [3]: 1247.8 IU/L
AST [3]: 65.4 IU/L
BUN [3]: 18.2 mg/dL
CRE [3]: 0.1 mg/dL
Ca [3]: 10.4 mg/dL
Cl [3]: 106.8 meq/L
DBIL [3]: 0 mg/dL
GLC [3]: 180.8 mg/dL
IP [3]: 6.6 mg/dL
LDH [3]: 194.8 IU/L
Na [3]: 142.2 meq/L
PL [3]: 140 mg/dL
RALB [3]: 3 g/dL
TBIL [3]: 0.004 mg/dL
TC [3]: 68.6 mg/dL
TG [3]: 134 mg/dL
TP [3]: 5.8 g/dL
gamma-GTP [3]: 1 IU/L
ALP [4]: 1104.2 IU/L
AST [4]: 66.8 IU/L
BUN [4]: 18.4 mg/dL
CRE [4]: 0.2 mg/dL
Ca [4]: 10.4 mg/dL
DBIL [4]: 0 mg/dL
GLC [4]: 179 mg/dL
IP [4]: 4.9 mg/dL
LDH [4]: 155.2 IU/L
Na [4]: 142.4 meq/L
PL [4]: 126 mg/dL
RALB [4]: 3.1 g/dL
TBIL [4]: 0.008 mg/dL
TC [4]: 61.6 mg/dL
TP [4]: 6.1 g/dL
gamma-GTP [4]: 1.2 IU/L
TERMINAL_BW [5]: 230.7 g
APTT [5]: 20.5 s
Bas [5]: 0%
Eos [5]: 0.8%
Fbg [5]: 321 mg/dL
Hb [5]: 13.3 g/dL
Ht [5]: 39.8%
MCH [5]: 20.9 pg
MCHC [5]: 33.5%
MCV [5]: 62.4 fL
Mono [5]: 2.8%
Neu [5]: 16.2%
PT [5]: 16.2 s
Plat [5]: 128.4 x10_4/uL
RBC [5]: 639 x10_4/ul
Ret [5]: 5.2%
WBC [5]: 83.5 x10_2/uL
KIDNEY_L [5]: 1.1 g
KIDNEY_R [5]: 1 g
KIDNEY_TOTAL [5]: 2.1 g
LIVER [5]: 12.1 g
ALP [5]: 1481 IU/L
AST [5]: 63.8 IU/L
BUN [5]: 19.2 mg/dL
CRE [5]: 0.2 mg/dL
Ca [5]: 10.8 mg/dL
Cl [5]: 105.6 meq/L
DBIL [5]: 0 mg/dL
GLC [5]: 179.6 mg/dL
IP [5]: 7 mg/dL
LDH [5]: 261.8 IU/L
Na [5]: 141 meq/L
PL [5]: 133.6 mg/dL
RALB [5]: 3 g/dL
TBIL [5]: 0.004 mg/dL
TC [5]: 72.4 mg/dL
TG [5]: 73.2 mg/dL
TP [5]: 5.8 g/dL
gamma-GTP [5]: 1.6 IU/L
TERMINAL_BW [6]: 256.9 g
TERMINAL_BW [7]: 298.5 g
TERMINAL_BW [8]: 353.3 g
APTT [6]: 20.6 s
Bas [6]: 0%
Eos [6]: 0.4%
Fbg [6]: 302.4 mg/dL
Hb [6]: 12.9 g/dL
Ht [6]: 38.5%
Lym [6]: 79.4%
MCH [6]: 21 pg
MCHC [6]: 33.6%
MCV [6]: 62.6 fL
Mono [6]: 1.2%
Neu [6]: 17.6%
PT [6]: 16.1 s
Plat [6]: 111.5 x10_4/uL
RBC [6]: 616.2 x10_4/ul
Ret [6]: 5.5%
WBC [6]: 106.4 x10_2/uL
APTT [7]: 20.9 s
Bas [7]: 0%
Eos [7]: 0.4%
Fbg [7]: 316 mg/dL
Hb [7]: 13.9 g/dL
Ht [7]: 41.6%
Lym [7]: 72.4%
MCH [7]: 20.3 pg
MCHC [7]: 33.5%
MCV [7]: 60.6 fL
Mono [7]: 1.4%
Neu [7]: 24.6%
PT [7]: 16.3 s
Plat [7]: 122.8 x10_4/uL
RBC [7]: 687.8 x10_4/ul
Ret [7]: 4.5%
WBC [7]: 85.7 x10_2/uL
APTT [8]: 23.2 s
Bas [8]: 0%
Eos [8]: 1.2%
Fbg [8]: 314.2 mg/dL
Hb [8]: 14.5 g/dL
Ht [8]: 42.3%
Lym [8]: 72%
MCH [8]: 19.1 pg
MCHC [8]: 34.2%
MCV [8]: 55.8 fL
Mono [8]: 1.8%
Neu [8]: 24%
PT [8]: 17.1 s
Plat [8]: 109.8 x10_4/uL
RBC [8]: 758.8 x10_4/ul
Ret [8]: 3%
WBC [8]: 86.3 x10_2/uL
KIDNEY_L [6]: 1.2 g
KIDNEY_R [6]: 1.2 g
KIDNEY_TOTAL [6]: 2.4 g
KIDNEY_L [7]: 1.3 g
KIDNEY_R [7]: 1.3 g
KIDNEY_TOTAL [7]: 2.6 g
KIDNEY_L [8]: 1.4 g
KIDNEY_R [8]: 1.4 g
KIDNEY_TOTAL [8]: 2.8 g
LIVER [7]: 15 g
LIVER [8]: 16.1 g
ALP [6]: 1138 IU/L
AST [6]: 64.8 IU/L
BUN [6]: 17.2 mg/dL
CRE [6]: 0.1 mg/dL
Ca [6]: 10.8 mg/dL
Cl [6]: 107.6 meq/L
DBIL [6]: 0 mg/dL
GLC [6]: 189.6 mg/dL
IP [6]: 7 mg/dL
LDH [6]: 203 IU/L
Na [6]: 143.6 meq/L
PL [6]: 119.6 mg/dL
RALB [6]: 2.9 g/dL
TBIL [6]: 0 mg/dL
TC [6]: 62.4 mg/dL
TG [6]: 73.8 mg/dL
TP [6]: 5.8 g/dL
gamma-GTP [6]: 1 IU/L
ALP [7]: 1375.6 IU/L
AST [7]: 67.8 IU/L
BUN [7]: 16.8 mg/dL
CRE [7]: 0.1 mg/dL
Ca [7]: 10.4 mg/dL
Cl [7]: 106 meq/L
DBIL [7]: 0 mg/dL
GLC [7]: 177.8 mg/dL
IP [7]: 6.3 mg/dL
LDH [7]: 194.4 IU/L
Na [7]: 143.8 meq/L
PL [7]: 138.2 mg/dL
RALB [7]: 3.1 g/dL
TBIL [7]: 0.004 mg/dL
TC [7]: 70.4 mg/dL
TG [7]: 114.8 mg/dL
TP [7]: 6 g/dL
gamma-GTP [7]: 1.2 IU/L
ALP [8]: 1014.6 IU/L
AST [8]: 65.8 IU/L
BUN [8]: 16.8 mg/dL
CRE [8]: 0.2 mg/dL
Ca [8]: 10.3 mg/dL
Cl [8]: 106.8 meq/L
DBIL [8]: 0 mg/dL
GLC [8]: 187.6 mg/dL
IP [8]: 5.9 mg/dL
LDH [8]: 154 IU/L
Na [8]: 142.2 meq/L
PL [8]: 111.8 mg/dL
RALB [8]: 3.2 g/dL
TBIL [8]: 0.016 mg/dL
TC [8]: 57 mg/dL
TG [8]: 56.4 mg/dL
TP [8]: 6.1 g/dL
gamma-GTP [8]: 1.6 IU/L

From ChEMBL document CHEMBL3885861, “Open TG-GATES”
